One series has as its target T1, recombinant TbGAPDH (Trypanosoma brucei brucei, UniProt P22512).
T1 construct: histidine tag (cleaved yes); made in house; host or cells: E. coli BL21 (DE3)
The series can be described thus: TbGAPDH inhibition assay (spectrophotometric, NADH at 340 nm). In kind it is biochemical. As to conditions: for % Inhibition at c = 50 µM / inhibition at 50 µM: 50 µM test compound, n.i. = no inhibition at 50 µM. As to the method:
To experimentally validate the predictions of the in silico screening, a spectrophotometric assay with recombinant TbGAPDH, measuring the increase of NADH during the conversion of 3-phosophoglyceraldehyde into 1,3-bisphosphoglycerate, was used. The increase of absorbance at 340 nm was measured for 1 min after the addition of the substrate. Initially, each test compound was added in a concentration of 50 µM and the slope of the resulting linear plots of absorbance vs. time compared to that of a control recorded in the absence of an inhibitor.
In order to determine the activity of TbGAPDH, a spectrophotometric assay was used as described before. For that purpose, the increasing amount of produced NADH was measured at 340 nm with a Hitachi U-2900 UV-VIS-Spectrophotometer as a linear indicator for the activity of the catalytic protein. The activity determined without the addition of an inhibitor was set to 100%; the measured inhibitions were calculated accordingly. The assay was performed at 30 °C, in a buffer of 0.1 M TEA, 0.1 M glycine and 0.1 M EDTA with varying concentrations of the tested compounds in a total volume of 1 mL containing 7.17 µg TbGAPDH, 1.5 mM NAD^+ and 0.5 mM G-3-P. The tested inhibitors were solved in DMSO, resulting in a final concentration of 0.1%–1% of solvent in the assay solution. […] Typically, 5–7 different concentrations were measured (each of them in triplicate) to determine IC50 values, which were calculated using the software “Prism 3.00” (GraphPad) via nonlinear regression analysis. The measured concentration/effect curves are shown in Supplementary Figures S14–S18.

Series [1] in a line: Cytotoxicity against mammalian cells. Format: cell-based, rat.
For series [2], the system named is T. brucei rhodesiense (STIB 900). The series can be described thus: In vitro antitrypanosomal activity against bloodstream forms. Format: cell-based. The conditions noted are these: Trypanosoma brucei, read-out: T. brucei rhodesiense (STIB 900) IC50. On the procedure:
Compounds 1–5 were tested for their in vitro activity against bloodstream forms of T. brucei rhodesiense (causative agent of East African HAT).

The test system of series [3] is L6 rat skeletal myoblasts. As to the kind of experiment: Cytotoxicity against mammalian cells. In kind it is cell-based. As to conditions: SI = IC50(cytotoxicity)/IC50(parasite), L6 vs T. brucei rhodesiense.
Series [4] deals with TbGAPDH. The series can be described thus: Previously known TbGAPDH inhibitors (literature). In kind it is biochemical, Trypanosoma brucei. The conditions noted are these: literature IC50 12 µM compared with IC50 of Compound 2. On the procedure: In comparison to previously-known TbGAPDH inhibitors, the IC50 values of our compounds are quite low, so that these hits obtained from in silico screening can be considered quite strong inhibitors of the target enzyme. To our knowledge, the strongest TbGAPDH inhibitor known up to now is a synthetic adenosine derivative with an IC50 of […] [17].

The subject of series [5] is TbGAPDH. The conditions noted are these: most active inhibitor of natural origin previously known; cited from earlier work.
The mark [6] stands for this setting: 30 °C, 1.5 mM NAD+, 0.5 mM G-3-P.
Setting [7] is: L6 rat skeletal myoblasts, mean ± margin of deviation of two independent determinations, read-out: Cytotoxicity (L6) IC50.
Where [8] appears, read: bloodstream forms, mean ± margin of deviation of two independent determinations.
The mark [9] stands for this setting: 30 °C, 1.5 mM NAD+, 0.5 mM G-3-P, 5–7 concentrations in triplicate, nonlinear regression, read-out: IC50 (TbGAPDH inhibition).

Entries after “also recorded” stand apart in the source; their conditions may differ. Like-named read-outs stand apart in the source and are kept apart here.

T1 sequence (P22512 whole entry): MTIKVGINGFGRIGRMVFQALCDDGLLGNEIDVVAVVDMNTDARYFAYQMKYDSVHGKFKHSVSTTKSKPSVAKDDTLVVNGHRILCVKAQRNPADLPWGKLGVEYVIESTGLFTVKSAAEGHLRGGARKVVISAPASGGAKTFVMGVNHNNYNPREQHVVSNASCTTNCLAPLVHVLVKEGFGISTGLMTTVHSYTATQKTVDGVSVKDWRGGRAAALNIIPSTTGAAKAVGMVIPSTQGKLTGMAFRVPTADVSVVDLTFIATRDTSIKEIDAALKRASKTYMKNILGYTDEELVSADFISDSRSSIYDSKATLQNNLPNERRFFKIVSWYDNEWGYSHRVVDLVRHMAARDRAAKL

In the case of `O=C(/C=C\c1ccc(O)cc1)NCCCCNC(=O)/C=C/c1ccc(O)cc1` [NP-015973], on recombinant TbGAPDH (setting [6]), the “% Inhibition at c = 50 µM” value was “n.i”.

As usually defined, the IC50 is the midpoint of a concentration-inhibition curve. As for `COc1cc([C@@H]2c3cc4c(cc3[C@H](O)[C@H]3COC(=O)[C@H]23)OCO4)cc(OC)c1OC` [Podophyllotoxin, reference compound], in series [1] (setting [7]), the IC50 amounted to 0.019 ± 0.002 µM.

Consider `CCCCCCC/C=C/C=C/C(=O)NCCc1ccc(O)cc1` [NP-007496], for which the “% Inhibition at c = 50 µM” value at recombinant TbGAPDH (setting [6]) is reported as “n.i”.

Take `COc1ccc(/C=C/C(=O)c2c(OC)cc(OC)c(CC=C(C)C)c2OC)cc1` [NP-010904]: the “% Inhibition at c = 50 µM” value on recombinant TbGAPDH (setting [6]) is listed as “n.i”.

Turning to `CCCC(=O)c1c(O)c(C)c(O)c(CC2=C(O)C(C)(C)C(O)=C(C(C)=O)C2=O)c1O` [NP-013330 (3), flavaspidic acid AB], the IC50 on recombinant TbGAPDH stood at 22 ± 1.03 µM; in series [2] (setting [8]), 17.9 ± 1.6 µM; in series [1] (setting [7]), 54.2 ± 0.5 µM. Besides, the “SI (selectivity index)” value in series [3] is reported as 3.0; in series [3] (listed as 3), “not significantly selective; also recorded: three”.

Turning to `CC(C)=CCC/C(C)=C/Cc1ccc(O)c(C(=O)c2c(O)cc(C=O)cc2C(=O)O)c1O` [NP-013378 (4)], the IC50 on recombinant TbGAPDH (setting [9]) stood at 6.68 ± 1.04 µM; in series [2] (setting [8]), 6.7 ± 2.2 µM; in series [1] (rat) it was 48.9 ± 4.1 µM. Also, the entries for the “SI (selectivity index)” value in series [3] and in series [3] (listed as 4) were 7.3 and “seven”, respectively.

With `CC(C)=CCC/C(C)=C/Cc1ccc(O)c(C(=O)c2c(O)cc(C(=O)O)cc2C=O)c1O` [NP-013296 (2)], the concentration for half-maximal inhibition (IC50) at recombinant TbGAPDH (setting [9]) came to 4.73 ± 1.04 µM; in series [2] (setting [8]), 41 ± 0.5 µM; in series [1] (rat) it was 48.7 ± 3.8 µM. The “SI (selectivity index)” value in series [3] is listed as 1.2; in series [3] (listed as 2) it was “not significantly selective”.

A word on the inhibition: it is the percentage by which the read-out fell short of the control. Take `CC(C)=CCC/C(C)=C/Cc1ccc(O)c(C(=O)c2c(O)cc(C(=O)O)cc2C(=O)O)c1O` [NP-011694 (1)]: the inhibition at 50 µM on recombinant TbGAPDH (setting [6]) is more than 50%. Moreover, the IC50 at recombinant TbGAPDH (setting [9]) came out at 24.6 ± 1.03 µM; in series [2] (setting [8]), 39.5 ± 3.1 µM; in series [1] (rat), 50.6 ± 3.8 µM. Also, the “SI (selectivity index)” value in series [3] amounted to 1.3.

Regarding `CC(C)=CCc1c(O)c(CC=C(C)C)c2occ(-c3ccc(O)c(O)c3)c(=O)c2c1O` [NP-013070], the inhibition at 50 µM at recombinant TbGAPDH (setting [6]) is 33%.

On to `C/C=C(\NC(=O)CCCCCCCCCCCCCCC(=O)O)C(=O)O` [NP-019430], for which the inhibition at 50 µM at recombinant TbGAPDH (setting [6]) was 45%.

`COc1cc(O)c2c(=O)c(-c3c(O)cc(O)c4c(=O)cc(-c5ccc(O)cc5)oc34)c(-c3ccc(O)cc3)oc2c1` [NP-008941]: the “% Inhibition at c = 50 µM” value at recombinant TbGAPDH (setting [6]) is “n.i”.

On to `Nc1nc(N)nc(Nc2ccc([As]3SCC(CO)S3)cc2)n1` (stereo not drawn) [Melarsoprol, reference compound], for which the 50% inhibitory concentration (IC50) in series [2] was determined as 0.005 ± 0.001 µM.

For the compound `Oc1cc(O)cc(CCC/C=C\CCCCCCCCCc2cc(O)cc(O)c2)c1` [NP-014428 (5)], the IC50 at recombinant TbGAPDH (setting [9]) worked out at 22.8 ± 1.01 µM; in series [2] (setting [8]), 29.3 ± 6.3 µM; in series [1] (rat) it was 15.5 ± 1.8 µM. Also, in series [3], the “SI (selectivity index)” value stood at 0.5.

Consider `CC(C)=CCc1c(O)c2c(c3c1OC(C)(C)C=C3)OCC(c1ccc(O)cc1O)C2=O` (stereo not drawn) [NP-012278], for which the inhibition at 50 µM at recombinant TbGAPDH (setting [6]) amounted to 24%.

Regarding `CC(C)=CCc1c2c(c3occ(-c4ccc(O)c(O)c4)c(=O)c3c1O)C=CC(C)(C)O2` [NP-005755], the inhibition at 50 µM on recombinant TbGAPDH (setting [6]) worked out at 44%.

Consider `COC(=O)/C=C(\C)CC[C@@]1(C)[C@H](C)CC[C@@]2(C)C(C(=O)O)=CCC[C@H]12` [monomethyl kolavate], for which the “fold less potent than Compound 2 (TbGAPDH IC50)” value in the series with TbGAPDH [4] was “about 2.5 fold”. In addition, the IC50 with TbGAPDH [5] was 12 µM.

Values taken from publication PMC6332274, “In Silico Identification and in Vitro Activity of Novel Natural Inhibitors of Trypanosoma brucei Glyceraldehyde-3-phosphate-dehydrogenase” (Molecules, 2015).
